One may read the Papp A→B as the apparent permeability from the apical to the basolateral side of a cell layer. One may read the solubility as how much of the substance goes into solution per volume. Lower therefore signals a poorly soluble substance. Broadly, the AUC is the area under the concentration-time curve, a measure of exposure. Read a high AUC as high exposure. The bioavailability is dose-corrected exposure relative to a reference, in per cent. The low end stands for poor availability, the high end for good availability.

Experimental findings from ChEMBL document CHEMBL4813965, “Discovery of CYR715: A novel carboxylic acid-containing soluble guanylate cyclase stimulator” (Bioorg Med Chem Lett, 2021) are described below.

A short description of data set [1]: Apparent permeability across apical to basolateral side of dog MDR1-MDCK2 cells. Type of data set: ADME, cell-based, Canis lupus familiaris, MDCK-II. To be noted: MDCK-MDR1.
A short description of data set [2]: Solubility of the compound at pH 7.0. To be noted: buffer. Type of data set: physicochemical.
Data set [3] is described as follows: AUC in rat at 1 mg/kg, po. Type of data set: ADME, organism-based. Also noted: dose 1 mg/kg. To be noted: in vivo.
Data set [4] in a line: Drug metabolism in rat assessed as formation of reactive and migrated acyl glucuronides metabolites. Type of data set: ADME.
Data set [5] in a line: Oral bioavailability in rat at 1 mg/kg. Type of data set: ADME, organism-based. To be noted: in vivo.

Converted amounts (≈) assume the structure as drawn.

For `Oc1nc(-c2cc(-c3ccon3)n(Cc3ccccc3F)n2)ncc1F`, in data set [1], the Papp A→B was determined as 24 ×10⁻⁶ cm/s. Also, in data set [2], the concentration in solution (solubility) came to 3 µg/mL (≈ 8.44 µM). This compound gave an AUC in data set [3] of 25000 ng·h/mL.

Take `C[C@@H]1CCCN(c2nc(-c3cc(-c4ccon4)n(Cc4ccccc4F)n3)ncc2F)[C@@H]1C(=O)O`: the Drug metabolism entry in data set [4] was “Metabolite_Detected”. Further, the Papp A→B in data set [1] was 40 ×10⁻⁶ cm/s. Moreover, the concentration in solution in data set [2] (solubility) came to 21 µg/mL (≈ 43.7 µM). In data set [3], this compound had an AUC of 3700 ng·h/mL. Besides, in data set [5], the bioavailability was greater than 100%. With `O=C(O)C1CCN(c2nc(-c3cc(-c4ccon4)n(Cc4ccccc4F)n3)ncc2F)CC1`, the Drug metabolism result in data set [4] is “Metabolite_Detected”.

For the compound `C[C@H]1CCCN(c2nc(-c3cc(-c4ccon4)n(Cc4ccccc4F)n3)ncc2F)[C@H]1C(=O)O`, the Drug metabolism entry in data set [4] is “Metabolite_Detected”. The same measure, in the same setting: under `O=C(O)[C@@H]1CCCCN1c1nc(-c2cc(-c3ccon3)n(Cc3ccccc3F)n2)ncc1F` stands “Metabolite_Detected”; under `O=C(O)[C@H]1CCCCN1c1nc(-c2cc(-c3ccon3)n(Cc3ccccc3F)n2)ncc1F`, “Metabolite_Detected”. On the same count and under the same terms, under `O=C(O)C1CCCN(c2nc(-c3cc(-c4ccon4)n(Cc4ccccc4F)n3)ncc2F)C1` (racemic) stands “Metabolite_Detected”.
